Test results reported in patent publication US4767872A, “Epoxide derivatives” (Centre National de la Recherche Scientifique (CNRS), priority 1985, dated 1988).

Assays:
CEC = assay: Detection test with compound of formula V, normal cells CEC (Table II); format: cell-based, chicken; conditions: Gallus gallus, read-out: inhibition of the growth of the cells
Description: (§1) Petri dishes having a diameter of 10 cm are seeded with 10^6 cells to be studied. At the end of 4 hours after seeding, the compound of formula V (with R'=R"=CH3, R'"=H) is added in the form of an aqueous solution containing 0.14 M NaCl, the solution having a volume of 100 microliters. The effect of the compound of formula V is studied at various concentrations.

HeLa [1] = assay: Detection test with compound of formula V, malignant cells HeLa (Table II); format: cell-based; conditions: Homo sapiens, read-out: inhibition of the growth of the cells
Description: as §1

NRK [2] = assay: Detection test with compound of formula V, benign transformed cells NRK (Table II); format: cell-based; conditions: Rattus norvegicus, read-out: inhibition of the growth of the cells
Description: as §1

MRC5 [3] = assay: Detection test with compound of formula V, normal cells MRC5 (Table II); format: cell-based; conditions: Homo sapiens, read-out: inhibition of the growth of the cells
Description: as §1

NRK B77 [4] = assay: Detection test with compound of formula V, malignant cells NRK B77 (Table II); format: cell-based; conditions: Rattus norvegicus, read-out: inhibition of the growth of the cells
Description: as §1

293 = assay: Growth inhibition, transformed cells 293 (Table 1); format: cell-based, human; conditions: 4 days
Description: (§2) The tests are carried out in the following manner:
(§3) A culture medium, constituted by the Eagle minimum medium to which has been added 10% of calf serum, is seed with 2×10^5 cells being studied.
(§4) After 4 days of culture, the inhibition relative to non-treated control cultures is measured.

Toxicity on mice = format: in vivo; conditions: intraperitoneal
Description: The study of the toxicity has been carried out on mice. The product of Example 1 is administered intraperitoneally at a dosage of 3 g/kg body weight daily for 8 days.

NRK [5] = assay: Growth inhibition, established line NRK (Table 1); format: cell-based, rat; conditions: 4 days
Description: as §2, §3, §4

HEp2 = assay: Growth inhibition, transformed cells HEp2 (Table 1); format: cell-based, human; conditions: 4 days
Description: as §2, §3, §4

MRC5 [6] = assay: Growth inhibition, normal diploid cells MRC5 (Table 1); format: cell-based; conditions: Homo sapiens, 96 h, 4 days, read-out: Cellular growth, percentage of inhibition
Description: as §2, §3, §4

NRK B77 [7] = assay: Growth inhibition, transformed cells NRK B77 (Table 1); format: cell-based; conditions: Rattus norvegicus, 96 h, 4 days, read-out: Cellular growth, percentage of inhibition
Description: as §2, §3, §4

HeLa [8] = assay: Growth inhibition, transformed cells HeLa (Table 1); format: cell-based; conditions: Homo sapiens, 96 h, 4 days, read-out: Cellular growth, percentage of inhibition
Description: as §2, §3, §4

[9] = target: T1, RALD (aldehyde reductase) (Rattus norvegicus, UniProt P51635); assay: In vitro test: inhibition of RALD in cellular homogenates of NRK B77 cells; format: biochemical
T1 construct: NADPH, malonic dialdehyde substrate, pH 6
T1 sequence (P51635 1-325): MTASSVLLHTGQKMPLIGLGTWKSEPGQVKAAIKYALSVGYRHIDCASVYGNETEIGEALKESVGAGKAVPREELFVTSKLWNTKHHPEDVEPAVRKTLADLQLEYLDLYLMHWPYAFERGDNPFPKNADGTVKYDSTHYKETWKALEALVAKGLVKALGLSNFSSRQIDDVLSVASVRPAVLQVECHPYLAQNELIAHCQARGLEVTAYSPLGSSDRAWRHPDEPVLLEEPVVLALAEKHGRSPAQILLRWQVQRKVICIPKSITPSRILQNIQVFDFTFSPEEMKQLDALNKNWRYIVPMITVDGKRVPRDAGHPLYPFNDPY
Description: Cellular homogenates of NRK B77 cells which contain about 500 micrograms of the enzyme are prepared and incubated with the compound of Example 1 at doses of 0.2 mM, 0.8 mM and 1 mM. The incubation lasts for 15, 30 or 60 minutes.
After incubation, an aliquot is added to the substrate which is 2 mM malonic dialdehyde dissolved in a phosphate buffer of pH 6 containing 0.35 mM of NADPH (co-factor of the enzyme).
The optical density is measured every minute, for 5 minutes, at 340 nm.
The transformation of NADPH into […] causes a linear reduction of the optical density. The inhibiting effect is evaluated by the difference between the variation of the optical density in the controls (without inhibitor) and the variation of the optical density with the inhibitor.

## CC(C)(N)C#CC=O
CEC; 0.5 × 10^-5 M
  inhibition at 5 µM: 0%
CEC; 1 × 10^-4 M
  inhibition at 100 µM: 0%
CEC; 2 × 10^-4 M
  inhibition at 200 µM: 0%
CEC; 4 × 10^-4 M
  inhibition at 400 µM: 10%
CEC; 6 × 10^-4 M
  inhibition at 600 µM: 12%
HeLa [1]; 0.5 × 10^-5 M
  inhibition at 5 µM: 0%
HeLa [1]; 1 × 10^-4 M
  inhibition at 100 µM: 18%
HeLa [1]; 2 × 10^-4 M
  inhibition at 200 µM: 36%
HeLa [1]; 4 × 10^-4 M
  inhibition at 400 µM: 78%
HeLa [1]; 6 × 10^-4 M
  inhibition at 600 µM: 91%
NRK [2]; 0.5 × 10^-5 M
  inhibition at 5 µM: 0%
NRK [2]; 1 × 10^-4 M
  inhibition at 100 µM: 0%
NRK [2]; 2 × 10^-4 M
  inhibition at 200 µM: 0%
NRK [2]; 4 × 10^-4 M
  inhibition at 400 µM: 0%
NRK [2]; 6 × 10^-4 M
  inhibition at 600 µM: 0%
MRC5 [3]; MRC5, 0.5 × 10^-5 M
  inhibition at 5 µM: 0%
MRC5 [3]; MRC5, 1 × 10^-4 M
  inhibition at 100 µM: 0%
MRC5 [3]; MRC5, 2 × 10^-4 M
  inhibition at 200 µM: 0%
MRC5 [3]; MRC5, 4 × 10^-4 M
  inhibition at 400 µM: 0%
MRC5 [3]; MRC5, 6 × 10^-4 M
  inhibition at 600 µM: 18%
NRK B77 [4]; NRK B77, 0.5 × 10^-5 M
  inhibition at 5 µM: 0%
NRK B77 [4]; NRK B77, 1 × 10^-4 M
  inhibition at 100 µM: 16%
NRK B77 [4]; NRK B77, 2 × 10^-4 M
  inhibition at 200 µM: 31%
NRK B77 [4]; NRK B77, 4 × 10^-4 M
  inhibition at 400 µM: 57%
NRK B77 [4]; NRK B77, 6 × 10^-4 M
  inhibition at 600 µM: 79%

## CC(C)(N)C#CC1(C)CO1 (stereo not shown) [Example 1, 5,6-epoxy-2,5-dimethyl-3-hexyne-2-amine]
293; 293, 1 × 10^-4 M
  Cellular growth, percentage of inhibition: 50%
293; 293, 2 × 10^-4 M
  Cellular growth, percentage of inhibition: 90%
293; 293, 4 × 10^-4 M
  Cellular growth, percentage of inhibition: Dead
293; 293, 5 × 10^-5 M
  Cellular growth, percentage of inhibition: 20%
293; 293, 6 × 10^-4 M
  Cellular growth, percentage of inhibition: Dead
Toxicity on mice; 3 g/kg daily for 8 days
  apparent toxicity: No apparent toxicity
Toxicity on mice; mouse, in vivo, ip, read-out: DL50 (the source's name)
  LD50: > 3000 mg/kg
NRK [5]; 6 × 10^-4 M
  Cellular growth, percentage of inhibition: Dead
NRK [5]; Rattus norvegicus, 96 h, 2 × 10^-4 M, read-out: Cellular growth, percentage of inhibition
  inhibition at 200 µM: 30%
NRK [5]; Rattus norvegicus, 96 h, 4 × 10^-4 M, read-out: Cellular growth, percentage of inhibition
  inhibition at 400 µM: 60%
HEp2; HEp2, 6 × 10^-4 M
  Cellular growth, percentage of inhibition: Dead
HEp2; Homo sapiens, HEp-2, 96 h, HEp2, 1 × 10^-4 M, read-out: Cellular growth, percentage of inhibition
  inhibition at 100 µM: 0%
HEp2; Homo sapiens, HEp-2, 96 h, HEp2, 2 × 10^-4 M, read-out: Cellular growth, percentage of inhibition
  inhibition at 200 µM: 20%
HEp2; Homo sapiens, HEp-2, 96 h, HEp2, 4 × 10^-4 M, read-out: Cellular growth, percentage of inhibition
  inhibition at 400 µM: 80%
HEp2; Homo sapiens, HEp-2, 96 h, HEp2, 5 × 10^-5 M, read-out: Cellular growth, percentage of inhibition
  inhibition at 50 µM: 0%
MRC5 [6]; MRC5, 1 × 10^-4 M
  inhibition at 100 µM: 0%
MRC5 [6]; MRC5, 2 × 10^-4 M
  inhibition at 200 µM: 0%
MRC5 [6]; MRC5, 4 × 10^-4 M
  inhibition at 400 µM: 0%
MRC5 [6]; MRC5, 5 × 10^-5 M
  inhibition at 50 µM: 0%
MRC5 [6]; MRC5, 6 × 10^-4 M
  inhibition at 600 µM: 0%
NRK B77 [7]; NRK B77, 1 × 10^-4 M
  inhibition at 100 µM: 0%
NRK B77 [7]; NRK B77, 2 × 10^-4 M
  inhibition at 200 µM: 0%
NRK B77 [7]; NRK B77, 4 × 10^-4 M
  inhibition at 400 µM: 50%
NRK B77 [7]; NRK B77, 5 × 10^-5 M
  inhibition at 50 µM: 0%
NRK B77 [7]; NRK B77, 6 × 10^-4 M
  inhibition at 600 µM: 60%
HeLa [8]; 1 × 10^-4 M
  inhibition at 100 µM: 0%
HeLa [8]; 2 × 10^-4 M
  inhibition at 200 µM: 20%
HeLa [8]; 4 × 10^-4 M
  inhibition at 400 µM: 80%
HeLa [8]; 5 × 10^-5 M
  inhibition at 50 µM: 0%
HeLa [8]; 6 × 10^-4 M
  inhibition at 600 µM: 90%
[9]; 1 mM, 30 minutes
  inhibition of the RALD activity: total inhibition
[9]; 0.5 h, 0.8 mM, 30 minutes
  remaining activity at 800 µM: ~10%
[9]; 1 h, 0.2 mM, 60 minutes
  remaining activity at 200 µM: < 25%
